Experimental data reported in US20050215548A1 (Cyclacel Limited, priority 2002, published 2005).
Like-named read-outs stand apart in the source and are kept apart here. One block for each compound: values may come before it.

Tests used:
[1] = test system: non-transformed human cell lines; test: 72-h MTT panel, average non-transformed; type: cell-based; conditions: average over non-transformed cell lines, read-out: Anti-proliferative activity, 72-h MTT IC50, Average non-transformed
Protocol: (§1) Representative bisarylsulfonamide compounds were tested on a panel of transformed and non-transformed human cell lines, using a standard 72-h MTT cytotoxicity assay [Haselsberger K et al, ibid].
(§2) This differential selectivity further supports the notion that the bisarylsulfonamides modulate cellular HDM2 function. It is known that HDM2 amplification is particularly common in soft tissue sarcomas and osteosarcomas [Momand J et al, ibid; Bartel F, Meye A, Wurl P, Kappler M, Bache M, Lautenschlager C, Grunbaum U, Schmidt H, Taubert H; Int. J. Cancer 2001; 95: 168-175].

[2] = test system: transformed human cell lines; test: 72-h MTT panel, average transformed; type: cell-based; conditions: average over transformed cell lines, read-out: Anti-proliferative activity, 72-h MTT IC50, Average transformed
Protocol: as §1, §2

WI38 = test: 72-h MTT cytotoxicity assay, WI38; type: cell-based; conditions: Homo sapiens, WI-38, 72 h; WI38, Lung fibroblasts; read-out: Anti-proliferative activity, 72-h MTT IC50
Protocol: as §1

carcinoma cell lines = test: 72-h MTT panel, average carcinomas; type: cell-based; conditions: Homo sapiens, average over carcinoma cell lines, read-out: Anti-proliferative activity, 72-h MTT IC50, Average carcinomas
Protocol: as §1, §2

Saos-2 = test: 72-h MTT cytotoxicity assay, Saos-2; type: cell-based; conditions: Homo sapiens, Saos-2, Osteosracoma, read-out: Anti-proliferative activity, 72-h MTT IC50
Protocol: as §1

Messa-Dx5 = test: 72-h MTT cytotoxicity assay, Messa-Dx5; type: cell-based; conditions: Homo sapiens, MES-SA/Dx5, 72 h; Messa-Dx5, Uterus sarcoma; read-out: Anti-proliferative activity, 72-h MTT IC50
Protocol: as §1

HCT116 = test: 72-h MTT cytotoxicity assay, HCT116; type: cell-based; conditions: Homo sapiens, HCT-116, 72 h; HCT116, Colon carcinoma; read-out: Anti-proliferative activity, 72-h MTT IC50
Protocol: as §1

A549 = test: 72-h MTT cytotoxicity assay, A549; type: cell-based; conditions: Homo sapiens, A549, Lung carcinoma, read-out: Anti-proliferative activity, 72-h MTT IC50
Protocol: as §1

SKUT-1 = test: 72-h MTT cytotoxicity assay, SKUT-1; type: cell-based; conditions: Homo sapiens, SK-UT-1, 72 h; SKUT-1, Uterus leiomyosarcoma; read-out: Anti-proliferative activity, 72-h MTT IC50
Protocol: as §1

HeLa = test: 72-h MTT cytotoxicity assay, HeLa; type: cell-based; conditions: Homo sapiens, Cervical carcinoma, read-out: Anti-proliferative activity, 72-h MTT IC50
Protocol: as §1

HT29 = test: 72-h MTT cytotoxicity assay, HT29; type: cell-based; conditions: Homo sapiens, HT-29, 72 h; HT29, Colon adenocarcinoma; read-out: Anti-proliferative activity, 72-h MTT IC50
Protocol: as §1

SJSA-1 = test: 72-h MTT cytotoxicity assay, SJSA-1; type: cell-based; conditions: Homo sapiens
In short: (§3)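 Anti-proliferative activity was measured by standard 72-h MTT assay. AGS is gastric adenocarcinoma with wild-type p53; H1299 is p53-null large cell lung carcinoma with low HDM2; SJSA-1 is bone sarcoma with wild-type p53 and overexpressed HDM2.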

IMR90 = test: 72-h MTT cytotoxicity assay, IMR90; type: cell-based; conditions: Homo sapiens, IMR-90, 72 h; IMR90, Lung fibroblasts; read-out: Anti-proliferative activity, 72-h MTT IC50
Protocol: as §1

NaCat = test: 72-h MTT cytotoxicity assay, NaCat; type: cell-based; conditions: Keratinocyte, Human keratinocytes, read-out: Anti-proliferative activity, 72-h MTT IC50
Protocol: as §1

SK-N-MC = test: 72-h MTT cytotoxicity assay, SK-N-MC; type: cell-based; conditions: Homo sapiens, Neuriepithelioma, read-out: Anti-proliferative activity, 72-h MTT IC50
Protocol: as §1

HDM2 = molecular target: T1, HDM2 (Homo sapiens, UniProt Q00987); test: Fluorescence polarisation competitive HDM2 binding assay
T1 construct: Recombinant HDM2 (1.5 μg per well) in TBS-BSA buffer
T1 sequence (Q00987 whole entry): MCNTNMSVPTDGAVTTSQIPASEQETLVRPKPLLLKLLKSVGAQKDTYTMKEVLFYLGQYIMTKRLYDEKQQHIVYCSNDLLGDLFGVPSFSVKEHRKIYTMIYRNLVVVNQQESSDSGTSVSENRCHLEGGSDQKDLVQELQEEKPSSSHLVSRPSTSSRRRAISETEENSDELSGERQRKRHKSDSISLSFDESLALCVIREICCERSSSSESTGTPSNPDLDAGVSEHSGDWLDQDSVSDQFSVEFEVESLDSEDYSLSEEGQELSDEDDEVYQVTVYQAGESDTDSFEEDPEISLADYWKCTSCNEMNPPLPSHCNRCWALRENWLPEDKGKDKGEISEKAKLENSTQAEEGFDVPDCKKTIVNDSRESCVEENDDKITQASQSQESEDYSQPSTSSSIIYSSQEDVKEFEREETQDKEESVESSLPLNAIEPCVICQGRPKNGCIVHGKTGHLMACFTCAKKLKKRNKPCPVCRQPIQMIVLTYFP
In short: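 Recombinant HDM2 (1.5 μg/well) was preincubated 5 min at room temperature with serially diluted compound in 50 mM Tris pH 7.4, 150 mM NaCl, 0.1% BSA, 5% DMSO final. Fluorescein-labelled p53 peptide (0.2 μM) was then added for 45 min. Polarisation was read at 485/520 nm and IC50 derived from dose-response curves.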

AGS = test: 72-h MTT cytotoxicity assay, AGS; type: cell-based; conditions: Homo sapiens
In short: as §3

Lovo = test: 72-h MTT cytotoxicity assay, Lovo; type: cell-based; conditions: Homo sapiens, Colon adenocarcinoma, read-out: Anti-proliferative activity, 72-h MTT IC50
Protocol: as §1

p53 = p53 reporter gene assay (U2OS-derived luciferase reporter cell line); conditions: for Fold induction of luciferase activity: compared to basal luciferase activity, 16-h time point, at concentration of maximal induction; for Concentration (test compound concentration at which the p53 induction was maximal): p53 reporter, U2OS-derived cell line
Protocol: A dual assay assessing both cell viability and p53 response was employed. A U2OS-derived cell line stably transfected with a p53 response element and a luciferase reporter gene was created. […] After seeding of cells into 96-well tissue culture plates, treatment with test compounds, and incubation for the desired duration, the cell proliferation reagent WST-1 (Roche Molecular Biochemicals) was used to determine cell viability. The Bright-Glo™ Luciferase Assay System (Promega) was used to measure luciferase activity. The data from the cell viability assay was used to normalise data from the luciferase assay.

HS27 = test: 72-h MTT cytotoxicity assay, HS27; type: cell-based; conditions: Homo sapiens, HS27, Foreskin fibroblasts, read-out: Anti-proliferative activity, 72-h MTT IC50
Protocol: as §1

MCF7 = test: 72-h MTT cytotoxicity assay, MCF7; type: cell-based; conditions: Homo sapiens, MCF7, Breast adenocarcinoma, read-out: Anti-proliferative activity, 72-h MTT IC50
Protocol: as §1

H1299 = test: 72-h MTT cytotoxicity assay, H1299; type: cell-based; conditions: Homo sapiens
In short: as §3

Nci-H460 = test: 72-h MTT cytotoxicity assay, Nci-H460; type: cell-based; conditions: Homo sapiens, Nci-H460, Large cell lung carcinoma, read-out: Anti-proliferative activity, 72-h MTT IC50
Protocol: as §1

sarcoma cell lines = test: 72-h MTT panel, average sarcomas; type: cell-based; conditions: Homo sapiens, average over sarcoma cell lines, read-out: Anti-proliferative activity, 72-h MTT IC50, Average sarcomas
Protocol: as §1, §2

Messa = test: 72-h MTT cytotoxicity assay, Messa; type: cell-based; conditions: Homo sapiens, MES-SA, Uterus sarcoma, read-out: Anti-proliferative activity, 72-h MTT IC50
Protocol: as §1

U2OS = test: 72-h MTT cytotoxicity assay, U2OS; type: cell-based; conditions: Homo sapiens, Osteosracoma, read-out: Anti-proliferative activity, 72-h MTT IC50
Protocol: as §1

DU145 = test: 72-h MTT cytotoxicity assay, DU145; type: cell-based; conditions: Homo sapiens, DU-145, 72 h; DU145, Prostate carcinoma; read-out: Anti-proliferative activity, 72-h MTT IC50
Protocol: as §1

[3] = test system: E2F transcription factors; test: E2F reporter gene assay (A549-derived luciferase reporter cell line); type: cell-based; conditions: Homo sapiens; after 3-h treatment with test compounds; read-out: IC50 E2F reporter, Non-synchronised cells
Protocol: A similar system to the p53 reporter assay described above was used, with the exception that it was designed to be responsive to E2F transcription factors rather than p53. An A549-derived cell line stably transfected with an E2F response element and a luciferase reporter gene was created. The genetic expression cassette construct used was from Clontech (Mercury™ Cell Cycle Profiling System). Assays were carried out as described above.
Representative bisarylsulfonamides were tested in the E2F gene reporter assay described in Example 6.

[4] = test system: AGS, H1299, MCF7 or SJSA1 cells; test: Cell morphology (cell rounding); type: cell-based, human; conditions: five times IC50
From the text: Equal amounts of cell lysate were separated by SDS-PAGE and analysed by immunoblotting using the indicated antibodies. An estimation of the extent of cell rounding is indicated above each lane. The arrow indicates the position of a 85-kDa cleavage product of PARP, indicative of apoptosis. (B) The effect of compound 2 on the levels of the cell cycle proteins in AGS cells (wild-type 53). […] Equal amounts of cell lysate were separated by SDS-PAGE and analysed by immunoblotting using the indicated antibodies. An estimation of the extent of cell rounding is indicated above each lane. (C) The effect of negative control compound (refer Example 10), compound 2, cisplatin, and anisomycin on the levels of key proteins in MCF7 cells. […] Cisplatinum and anisomycin (a transcription inhibitor) treatments were with 50 μM or 37 μM, respectively. Cells were harvested at various time points; afterwards lysates were prepared and separated by SDS-PAGE and analysed by immunoblotting. The proteins detected are indicated. The extent of rounded or floating cells and the percentage viable cells were assessed. […] Equal amounts of cell lysate were separated by SDS-PAGE and analysed by immunoblotting using a range of antibodies. An estimation of the extent of cell rounding is indicated above each lane. […] SJSA1 cells were treated with 5 times [IC50] of compound 2 and collected at the indicated time points. Equal amounts of cell lysate were separated by SDS-PAGE and analysed by immunoblotting using a range of antibodies. An estimation of the extent of cell rounding is indicated above each lane.
Cells were treated with 5 times [IC50] of compound 2 and collected at various time points. The percentage of rounded cells was counted before cells were trypsinised and counted for cell viability using trypan blue.
Cells were lysed and equal amounts were analysed by SDS-polyacrylamide gel electrophoresis (SDS-PAGE) and immunoblotting. […] The reduction in E2F-1 levels correlated with reduction in E2F transcriptional activity as determined by an E2F-dependent luciferase reporter assay (refer Example 6).

[5] = fluorescence polarisation assay, Table 3, read-out: In vitro competitive HDM2 binding assay IC50
[6] = fluorescence polarisation format, Table 1, read-out: IC50 In vitro competitive HDM2 binding assay
[7] = 72-h MTT, Table 1, read-out: IC50 Anti-proliferative effect on cell line AGS
[8] = NCI-H1299, 72-h MTT, Table 1, read-out: IC50 Anti-proliferative effect on cell line H 1299

- IC50 (carcinoma cell lines): 9.7 ± 4.7 µM
- IC50 (HDM2; [5]): 15.4 ± 7.8 µM
- IC50 (HDM2; [6]): 15.4 ± 7.8 µM
- Fold induction of luciferase activity (p53): 32 fold
- IC50 (sarcoma cell lines): 11.3 ± 3.7 µM
Compound: CN(c1ccc(F)cc1)S(=O)(=O)c1cc([N+](=O)[O-])c(Cl)s1 [Compound 7]
- IC50 [1]: 44.6 ± 6.9 µM
- IC50 [2]: 10.2 ± 4.4 µM
- IC50 (WI38): 52.3 µM
- IC50 (Saos-2): 13.3 µM
- IC50 (Messa-Dx5): 7.6 µM
- IC50 (HCT116): 12.2 µM
- IC50 (A549): 19.3 µM
- IC50 (SKUT-1): 6.1 µM
- IC50 (HeLa): 13.7 µM
- IC50 (HT29): 4.6 µM
- IC50 (SJSA-1; 72 h, SJSA-1, Osteosracoma, Table 2, read-out: Anti-proliferative activity, 72-h MTT IC50): 17 µM
- IC50 (SJSA-1; SJSA-1, 72-h MTT, Table 1, read-out: IC50 Anti-proliferative effect on cell line SJSA-4): 9.3 ± 2.7 µM
- IC50 (IMR90): 41.8 µM
- IC50 (NaCat): 12.9 µM
- IC50 (SK-N-MC): 3 µM
- IC50 (AGS; [7]): 7 ± 1.3 µM
- IC50 (AGS; 72 h, Gastric adenocarcinoma, Table 2, read-out: Anti-proliferative activity, 72-h MTT IC50): 5 µM
- IC50 (Lovo): 8.5 µM
- Concentration (test compound concentration at which the p53 induction was maximal) (p53): 9 µM
- IC50 (HS27): 39.2 µM
- IC50 (MCF7): 11.2 µM
- IC50 (H1299; NCI-H1299, 72 h, H1299, Large cell lung carcinoma, Table 2, read-out: Anti-proliferative activity, 72-h MTT IC50): 14 µM
- IC50 (H1299; [8]): 12.9 ± 0.7 µM
- IC50 (Nci-H460): 9.6 µM
- IC50 (Messa): 8.1 µM
- IC50 (U2OS): 8.8 µM
- IC50 (DU145): 9.1 µM

Compound: CC(Cc1c[nH]c2ccccc12)NS(=O)(=O)c1cc([N+](=O)[O-])c(Cl)s1 (centres unmarked) [Compound 49, 5-Chloro-4-nitrothiophene-2-sulfonic acid [2-(1H-indol-3-yl)-1-methylethyl]amide]
- IC50 [3]: 36.3 ± 2.9 µM
- IC50 (SJSA-1; SJSA-1, 72-h MTT, Table 1, read-out: IC50 Anti-proliferative effect on cell line SJSA-1): 2 ± 0.2 µM
- IC50 (HDM2; [5]): 46.3 ± 4 µM
- IC50 (HDM2; [6]): 46.3 ± 4 µM
- IC50 (AGS; [7]): 2.2 ± 2.3 µM
- Fold induction of luciferase activity (p53): 117 fold
- Concentration (test compound concentration at which the p53 induction was maximal) (p53): 5.5 µM
- cell rounding [4]: even more rapid cell rounding
- IC50 (H1299; [8]): 1.5 ± 0.4 µM
